Laboratory results as given in patent US20250179056A1, “NOVEL SULFATE SALT FORMS OF ISOCHROMAN-IMIDAZOLE STRUCTURED ALPHA-2A ADRENOCEPTOR AGONIST” (ORION CORPORATION, priority 2022, published 2025).
Entries after “also recorded” stand apart in the source; their conditions may differ.

Experiment: Slurry experiments (SLC, SL, SLT) started with crystalline form 1; wet powders analyzed by XRPD
Format: physicochemical
Details: for Resulting crystalline form SLC: aged at 5° C. under magnetic stirring; for Resulting crystalline form SLT: aged at 40° C. in shaker at 700 rpm; for Resulting crystalline form SL: aged at room temperature under magnetic stirring
Protocol: The slurry experiments (SLC, SL and SLT) were carried out with the crystalline form 1 in different conditions. 15 mg of starting material were mixed with 200 μl of solvent or solvent mixture (at a concentration of about 75 mg/ml). The mixture was homogenized by vortexing for 10 seconds. The resulting suspensions were aged at different conditions: a) at 5° C. under magnetic stirring (SLC), b) at room temperature under magnetic stirring (SL), and c) at 40° C. in the shaker at 700 rpm (SLT). During the aging time, the samples were checked regularly, and solvent was added if needed. After completing the aging time, the vials were opened, and the (wet) powders were analyzed by XRPD.

[1] = slurry in 2-Butanone, about 75 mg/ml
[2] = slurry in 2-Ethoxy ethanol, about 75 mg/ml
[3] = slurry in 2-Methyltetrahydrofuran, about 75 mg/ml
[4] = slurry in Acetone/Water (86:14 vol %), water activity 0.75, about 75 mg/ml
[5] = slurry in Acetonitrile/Water (96:4 vol %), water activity 0.60, about 75 mg/ml
[6] = slurry in Ethanol, about 75 mg/ml
[7] = slurry in Ethanol/Water (26:74 vol %), water activity >0.9, about 75 mg/ml
[8] = slurry in Methanol/Water (20:80 vol %), water activity >0.9, about 75 mg/ml
[9] = slurry in THF/Water (90:10 vol %), water activity 0.88, about 75 mg/ml
[10] = slurry in Water (water activity 1), about 75 mg/ml

COc1cccc2c1CCOC2C1=NCCN1.O=S(=O)(O)O (stereo not shown) [Form 1, 2-(5-methoxyisochroman-1-yl)-4,5-dihydro-1H-imidazole sulfate crystalline form 1]
Resulting crystalline form SLC [1]: Form 1
Resulting crystalline form SLT [1]: Form 1
Resulting crystalline form SL [1]: Form 1
Resulting crystalline form SLT [2]: Form 4
Resulting crystalline form SL [2]: Form 4
Resulting crystalline form SLC [3]: Form 1
Resulting crystalline form SLT [3]: Form 1
Resulting crystalline form SL [3]: Form 1
Resulting crystalline form SLC [4]: Form 1
Resulting crystalline form SLT [4]: Form 1
Resulting crystalline form SL [4]: Form 1
Resulting crystalline form SLC [5]: Form 1
Resulting crystalline form SLT [5]: Form 1
Resulting crystalline form SL [5]: Form 1
Resulting crystalline form SLC [6]: Form 1
Resulting crystalline form SLT [6]: Form 1
Resulting crystalline form SL [6]: Form 1
Resulting crystalline form SLC [7]: Form 2; also recorded: (+Form 1)
Resulting crystalline form SLT [7]: Form 2
Resulting crystalline form SL [7]: Form 2
Resulting crystalline form SLC [8]: Form 2
Resulting crystalline form SLT [8]: Form 2
Resulting crystalline form SL [8]: Form 2
Resulting crystalline form SLC [9]: Form 1
Resulting crystalline form SLT [9]: Form 1
Resulting crystalline form SLC [10]: Form 2
Resulting crystalline form SLT [10]: Form 2
Resulting crystalline form SL [10]: Form 2
